One compound from patent US20140045807A2, “THE USE OF 3-METHOXY-PREGNENOLONE FOR THE PREPARATION OF A DRUG FOR TREATING A TRAUMATIC BRAIN INJURY” (priority 2004, published 2014) can be followed below.

Experiment [1] relates to spinal cord compression in rats. Kind of experiment: Spinal cord compression model, locomotor recovery (BBB score). The settings on record: 12 mg/kg/day subcutaneous for 2 weeks; as of post-operation day 7. The format is in vivo, rat. On the procedure: FIG. 7: Effect of molecule 43B on locomotor recovery following spinal cord compression in rats. Animal locomotion was evaluated in a blind format during the 1-28 day post-operative period using the BBB score which evaluates the degree of paralysis (higher values correspond to better recovery). Statistical significance: * indicates p<0.001; ** indicates p<0.0001.
To determine the neuroprotective effects of the molecules tested, a spinal cord compression model is used. This model involves the total paralysis of the animals in the first few days following the operation. This period of paralysis is followed of a phase of approximately three weeks during which the animals partially recover their motor function. The study of this recovery using a simple and precise functional test based on observation of the animals (the BBB score) makes it possible to study the speed and the degree of recovery of the animals, with and without treatment.
Two groups of rats were subjected to spinal cord compression. Then, daily for 2 weeks, the animals received a subcutaneous injection containing either sesame oil alone (control group, n=20), or sesame oil containing molecule 43B (43B group, n=20; 12 mg/kg/day). The first injection was given minutes after spinal cord compression. Locomotion of the animals, using BBB scores, was evaluated in a blind format on post-operation days 1, 4, 7, 14, 21, and 28. […]

The subject of a further experiment is CHI traumatized animals. Kind of experiment: MRI of ventricular dilatation after Closed Head Injury (CHI). The format is in vivo, rat. The settings on record: 20 mg/kg starting 24 hours post-trauma, day 28, compared to the vehicle. On the procedure: FIG. 17: Ventricular dilatation of Control animals injected with sesame oil (Control) and CHI traumatized animals injected with sesame oil (CHI-D0), or MAP4343 at 10 mg/kg (CHI-D1) or 20 mg/kg (CHI-D2) at day 28 post-trauma. (A) Representative MRI images.
The model “Closed Head Injury” (CHI), also commonly known as “weight-drop”, “impact-acceleration” or Marmarou model, allows the induction of TBI on a closed skull and generates diffuse axonal injuries (Holtzer et al 2001). After anesthesia induction, the scalp was incised, a piece of metal (diameter […], height 3 mm)—designed to protect against skull fracture—was glued to the skull, between the lambda and bregma. The animal was then placed on a foam bed and a cylindrical metallic 230-g weight was dropped from 2 m through a metal tubing onto the disk. At the very moment of the impact, the head of the animal plunged briefly in the foam bed, which leads to an acceleration/deceleration of the brain inside the skull. […]
MRI imaging of rats was performed at day 28 post-trauma. Based on MRI imaging, ventricular dilatation induced by CHI trauma was analyzed in CHI traumatized rats injected from 24 hours post-trauma with sesame oil (CHI-D0), or 3-methoxy-PREG (MAP4343) at 10 mg/kg (CHI-D1) or 20 mg/kg (CHI-D2).

For experiment [2], the system named is Sprague Dawley rats, recognition memory. Kind of experiment: Novel object recognition test (NOR). The format is in vivo, rat. The method, then:
FIG. 14: 3-methoxy-PREG (43B) enhanced retention of recognition memory in naïve animals and recovered recognition memory deficits in social isolated rats. (A) Sesame Oil treated rats cannot discriminate between the novel and the familiar object following a 4 h inter trial interval (ITI) time. In contrast, 43B (10 mg/kg subcutaneously) treated rats retain the ability to discriminate between the novel and the familiar object. Mean±SEM, n=11-12 per group. ***p<0.001 vs sesame oil (T-test). (B) Isolated animals treated with sesame oil cannot discriminate between the novel and the familiar object following […], while grouped (control) rats clearly discriminate. […]
Cognitive dysfunction, including impaired recognition memory, are common features in depressed patients (Egeland et al., Scand. J. Psychol. 2005). […] Recognition memory was assessed using the NOR test which is a two-trial test of recognition memory based on the spontaneous preference of rats for novelty (Ennaceur and Delacour, Behav. Brain. Res. 1988; Bianchi et al., EJN 2006). […] The ability of the animals to discriminate between the novel and the familiar object is then expressed as: D2-INDEX: [novel object (sec)-familiar object (sec)]/[novel object (sec)+familiar object (sec)] […]

Another experiment deals with PC12 cells. The experiment can be described thus: Retraction of neurites induced by nocodazole. The experiment is classed as cell-based, rat. The settings on record: pretreated one hour at 30 μM, nocodazole 15 minutes. From the text:
FIG. 5: Retraction of neurites (neurites) induced by nocodazole.
Nocodazole is a microtubule depolymerizing agent. Its addition to PC12 cell cultures, differentiated in the presence of NGF, causes neurites to retract as a result of the depolymerization of their microtubules.

Turning to `CO[C@H]1CC[C@@]2(C)C(=CC[C@H]3[C@@H]4CC[C@H](C(C)=O)[C@@]4(C)CC[C@@H]32)C1` [3-methoxy-PREG, 3β-methoxy-pregna-5-ene-20-one], the “BBB score (locomotion)” value in experiment [1] was “quite significantly higher than the control animals”. Besides, in the experiment on CHI traumatized animals, the “ventricular dilatation (ventricles area, MRI)” value is recorded as “significantly decreases the ventricular dilatation”. Further, in experiment [2] (10 mg/kg subcutaneously 1 h before task, ITI of 1 h), the “discrimination of novel and familiar object, social isolated rats” value was “efficiently discriminated between the familiar and the novel object”. For the same compound, the “discrimination of novel and familiar object, naïve animals” value in experiment [2] (10 mg/kg subcutaneously immediately after T1, ITI of 4 h) is “discriminated between the novel and the familiar object”. The “resistance of neurites to nocodazole” value in the experiment with PC12 cells is “makes the neurites resistant to nocodazole”.
